Measured values taken from US20160271263A1 (Novo Nordisk A/S, priority 2010, published 2016).
Numbered stars: 1 amine (or outer) side, 2 acyl side, 3 side chain; on linkers, the order of the positions; unused ones are H or OH. Side chains are listed from the residue outwards. Peptide text beside a SMILES is read from it. * marks the point of attachment. C18 diacid = O=C(O)CCCCCCCCCCCCCCCCC(=O)*; γGlu = O=C(O)[C@H](CCC(=O)[*:2])N[*:1]; AEEA = NCCOCCOCC(=O)O

Biological target: glucagon receptor (Homo sapiens, UniProt P47871)
Sequence (P47871 26-477): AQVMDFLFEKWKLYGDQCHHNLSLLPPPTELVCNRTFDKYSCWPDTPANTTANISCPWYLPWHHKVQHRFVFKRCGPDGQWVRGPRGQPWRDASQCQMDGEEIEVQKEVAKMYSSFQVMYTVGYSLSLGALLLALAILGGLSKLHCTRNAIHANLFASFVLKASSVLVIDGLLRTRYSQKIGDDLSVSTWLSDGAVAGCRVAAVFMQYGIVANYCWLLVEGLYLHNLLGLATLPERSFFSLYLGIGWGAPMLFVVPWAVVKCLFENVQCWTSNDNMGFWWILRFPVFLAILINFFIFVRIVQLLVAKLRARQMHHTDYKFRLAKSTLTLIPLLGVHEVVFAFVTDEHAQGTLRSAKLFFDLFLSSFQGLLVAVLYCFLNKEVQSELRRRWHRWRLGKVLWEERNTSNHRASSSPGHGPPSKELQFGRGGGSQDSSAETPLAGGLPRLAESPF
Test: cell-based

**Q.** With `CC(C)C[C@H](NC(=O)[C@H](Cc1ccc(O)cc1)NC(=O)[C@H](CCCCN)NC(=O)[C@H](CO)NC(=O)[C@H](Cc1ccc(O)cc1)NC(=O)[C@H](CC(=O)O)NC(=O)[C@H](CO)NC(=O)[C@@H](NC(=O)[C@H](Cc1ccccc1)NC(=O)[C@@H](NC(=O)CNC(=O)[C@H](CCC(N)=O)NC(=O)[C@H](CO)NC(=O)[C@@H](N)Cc1c[nH]cn1)[C@@H](C)O)[C@@H](C)O)C(=O)N[C@@H](CC(=O)O)C(=O)N[C@@H](CO)C(=O)N[C@@H](CCCCN)C(=O)N[C@@H](CCCNC(=N)N)C(=O)N[C@@H](C)C(=O)N[C@@H](CCC(N)=O)C(=O)N[C@@H](CCC(=O)O)C(=O)N[C@@H](Cc1ccccc1)C(=O)N[C@H](C(=O)N[C@@H](CCC(N)=O)C(=O)N[C@@H](Cc1c[nH]c2ccccc12)C(=O)N[C@@H](CC(C)C)C(=O)N[C@@H](CCCCNC(=O)COCCOCCNC(=O)COCCOCCNC(=O)CC[C@H](NC(=O)CCCCCCCCCCCCCCCCC(=O)O)C(=O)O)C(=O)N[C@@H](CC(N)=O)C(=O)N[C@H](C(N)=O)[C@@H](C)O)C(C)C` [Example 45, N^ε27 ([2-[2-[2-[[2-[2-[2-[[(4S)-5-hydroxy-4-[(18-hydroxy-18-oxooctadecanoyl)amino]-5-oxopentanoyl]amino]ethoxy]ethoxy]acetyl]amino]ethoxy]ethoxy]acetyl]) [Lys^17, Glu^21, Lys^27] Glucagon peptide amide] (H-HSQGTFTSDYSKYLDSKRAQEFVQWLK([AEEA-AEEA-γGlu-C18 diacid])NT-NH2; N-terminus assumed) as the compound, how does the EC50 read?
**A.** 0.007 nM

**Q.** Which EC50 does the source give for `CC(C)C[C@H](NC(=O)[C@H](CC(C)C)NC(=O)[C@H](Cc1c[nH]c2ccccc12)NC(=O)[C@H](CCC(N)=O)NC(=O)[C@@H](NC(=O)[C@H](Cc1ccccc1)NC(=O)[C@H](CCC(=O)O)NC(=O)[C@H](CCC(N)=O)NC(=O)[C@H](C)NC(=O)[C@H](CCCNC(=N)N)NC(=O)[C@H](CCCCN)NC(=O)[C@H](CO)NC(=O)[C@H](CC(=O)O)NC(=O)[C@H](CC(C)C)NC(=O)[C@H](Cc1ccc(O)cc1)NC(=O)[C@H](CCCCN)NC(=O)[C@H](CO)NC(=O)[C@H](Cc1ccc(O)cc1)NC(=O)[C@H](CC(=O)O)NC(=O)[C@H](CO)NC(=O)[C@@H](NC(=O)[C@H](Cc1ccccc1)NC(=O)[C@@H](NC(=O)CNC(=O)[C@H](CCC(N)=O)NC(=O)[C@H](CO)NC(=O)[C@@H](N)Cc1c[nH]cn1)[C@@H](C)O)[C@@H](C)O)C(C)C)C(=O)N[C@@H](CC(N)=O)C(=O)N[C@@H](CCCCNC(=O)COCCOCCNC(=O)COCCOCCNC(=O)CC[C@H](NC(=O)CCCCCCCCCCCCCCCCC(=O)O)C(=O)O)C(N)=O` [Example 46, N^ε29 ([2-[2-[2-[[2-[2-[2-[[(4S)-5-hydroxy-4-[(18-hydroxy-18-oxooctadecanoyl)amino]-5-oxopentanoyl]amino]ethoxy]ethoxy]acetyl]amino]ethoxy]ethoxy]acetyl]) [Lys^17, Glu^21, Leu^27, Lys^29] Glucagon peptide amide] (H-HSQGTFTSDYSKYLDSKRAQEFVQWLLNK([AEEA-AEEA-γGlu-C18 diacid])-NH2; N-terminus assumed) here?
**A.** 0.003 nM

**Q.** Which EC50 does the source give for `CC(C)C[C@H](NC(=O)[C@H](Cc1ccc(O)cc1)NC(=O)[C@H](CCCNC(=N)N)NC(=O)[C@H](CO)NC(=O)[C@H](Cc1ccc(O)cc1)NC(=O)[C@H](CC(=O)O)NC(=O)[C@H](CO)NC(=O)[C@@H](NC(=O)[C@H](Cc1ccccc1)NC(=O)[C@@H](NC(=O)CNC(=O)[C@H](CCC(N)=O)NC(=O)[C@H](CO)NC(=O)[C@@H](N)Cc1c[nH]cn1)[C@@H](C)O)[C@@H](C)O)C(=O)N[C@@H](CC(=O)O)C(=O)N[C@@H](CO)C(=O)N[C@@H](CCCNC(=N)N)C(=O)N[C@@H](CCCNC(=N)N)C(=O)N[C@@H](C)C(=O)N[C@@H](CCC(N)=O)C(=O)N[C@@H](CC(=O)O)C(=O)N[C@@H](Cc1ccccc1)C(=O)N[C@H](C(=O)N[C@@H](CCCCNC(=O)COCCOCCNC(=O)COCCOCCNC(=O)CC[C@H](NC(=O)CCCCCCCCCCCCCCCCC(=O)O)C(=O)O)C(=O)N[C@@H](Cc1c[nH]c2ccccc12)C(=O)N[C@@H](CC(C)C)C(=O)N[C@@H](CC(C)C)C(=O)N[C@@H](CC(N)=O)C(=O)N[C@H](C(=O)O)[C@@H](C)O)C(C)C` [Example 47] (H-HSQGTFTSDYSRYLDSRRAQDFVK([AEEA-AEEA-γGlu-C18 diacid])WLLNT-OH; N-terminus and C-terminus assumed) here?
**A.** 0.109 nM

**Q.** For `CC(C)C[C@H](NC(=O)[C@H](Cc1ccc(O)cc1)NC(=O)[C@H](CCCCN)NC(=O)[C@H](CO)NC(=O)[C@H](Cc1ccc(O)cc1)NC(=O)[C@H](CC(=O)O)NC(=O)[C@H](CO)NC(=O)[C@@H](NC(=O)[C@H](Cc1ccccc1)NC(=O)[C@@H](NC(=O)CNC(=O)[C@H](CCC(N)=O)NC(=O)[C@H](CO)NC(=O)[C@@H](N)Cc1c[nH]cn1)[C@@H](C)O)[C@@H](C)O)C(=O)N[C@@H](CC(=O)O)C(=O)N[C@@H](CO)C(=O)N[C@@H](CCCNC(=N)N)C(=O)N[C@@H](CCCNC(=N)N)C(=O)N[C@@H](C)C(=O)N[C@@H](CCC(N)=O)C(=O)N[C@@H](CCC(=O)O)C(=O)N[C@@H](Cc1ccccc1)C(=O)N[C@H](C(=O)N[C@@H](CCCCNC(=O)COCCOCCNC(=O)COCCOCCNC(=O)CC[C@H](NC(=O)CCCCCCCCCCCCCCCCC(=O)O)C(=O)O)C(=O)N[C@@H](Cc1c[nH]c2ccccc12)C(=O)N[C@@H](CC(C)C)C(=O)N[C@@H](CC(C)C)C(=O)N[C@@H](CC(N)=O)C(=O)N[C@H](C(=O)O)[C@@H](C)O)C(C)C` [Example 48], which EC50 is on record?
**A.** 0.021 nM

**Q.** `CC(C)C[C@H](NC(=O)[C@H](Cc1ccc(O)cc1)NC(=O)[C@H](CCCCN)NC(=O)[C@H](CO)NC(=O)[C@H](Cc1ccc(O)cc1)NC(=O)[C@H](CC(=O)O)NC(=O)[C@H](CO)NC(=O)[C@@H](NC(=O)[C@H](Cc1ccccc1)NC(=O)[C@@H](NC(=O)CNC(=O)[C@H](CCC(N)=O)NC(=O)[C@H](CO)NC(=O)[C@@H](N)Cc1c[nH]cn1)[C@@H](C)O)[C@@H](C)O)C(=O)N[C@@H](CC(=O)O)C(=O)N[C@@H](CO)C(=O)N[C@@H](CCCNC(=N)N)C(=O)N[C@@H](CCC(N)=O)C(=O)N[C@@H](C)C(=O)N[C@@H](CCC(N)=O)C(=O)N[C@@H](CCC(=O)O)C(=O)N[C@@H](Cc1ccccc1)C(=O)N[C@H](C(=O)N[C@@H](CCCCNC(=O)COCCOCCNC(=O)COCCOCCNC(=O)CC[C@H](NC(=O)CCCCCCCCCCCCCCCCC(=O)O)C(=O)O)C(=O)N[C@@H](Cc1c[nH]c2ccccc12)C(=O)N[C@@H](CC(C)C)C(=O)N[C@@H](CC(C)C)C(=O)N[C@@H](CC(N)=O)C(=O)N[C@H](C(=O)O)[C@@H](C)O)C(C)C` [Example 49, N^ε24-([2-[2-[2-[[2-[2-[2-[[(4S)-5-hydroxy-4-[(18-hydroxy-18-oxooctadecanoyl)amino]-5-oxopentanoyl]amino]ethoxy]ethoxy]acetyl]amino]ethoxy]ethoxy]acetyl]) [Gln^18,Glu^21,Lys^24,Leu^27] Glucagon] (H-HSQGTFTSDYSKYLDSRQAQEFVK([AEEA-AEEA-γGlu-C18 diacid])WLLNT-OH; N-terminus and C-terminus assumed) was tested. Which EC50 did it give?
**A.** 0.15 nM
